From paper PMC5357725, “Global update on the susceptibility of human influenza viruses to neuraminidase inhibitors, 2014–2015” (Antiviral Research, 2016)

Key:
[1] = system: A(H1N1)pdm09 neuraminidase (NA); format: biochemical, influenza A(H1N1)pdm09 virus
[2] = target: B/Victoria-lineage neuraminidase (NA); format: biochemical, influenza B/Victoria-lineage virus

SMILES	inhibition class (NI, RI, HRI) [1]	IC50 values fold higher than the median [2]
[H]/N=C(\N)N[C@H]1C=C(C(=O)O)O[C@@H]([C@H](OC)[C@H](O)CO)[C@@H]1NC(C)=O [Laninamivir, laninamivir]	NI (key: normal inhibition (NI) (A viruses <10-fold; reduced inhibition (RI) (A viruses 10- to 100-fold; highly reduced inhibition (HRI) (A viruses >100-fold)	
CCC(CC)[C@H](NC(C)=O)[C@@H]1[C@H](O)[C@@H](C(=O)O)C[C@H]1N=C(N)N [Peramivir, peramivir]		8- to 14 fold
